Measurements as given in patent US9302999B2, “Substituted triazoles as herbicides” (E. I. DU PONT DE NEMOURS AND COMPANY, priority 2012, dated 2016).

Experiments:
Format in all cases: in vivo
[1] = system: nightshade (eastern black nightshade, Solanum ptycanthum); experiment: Test E pre-/postemergence: nightshade; settings: Preemergence, scale 0 to 100
From the text: (§1) Seeds of plant species selected from corn (Zea mays), soybean (Glycine max), velvetleaf (Abutilon theophrasti), lambsquarters (Chenopodium album), poinsettia, wild (wild poinsettia, Euphorbia heterophylla), pigweed, palmer (palmer pigweed, Amaranthus palmeri), waterhemp (common waterhemp, Amaranthus rudis), smartweed (ladysthumb smartweed, Polygonum persicaria), surinam grass (Brachiaria decumbens), crabgrass, large (large crabgrass, Digitaria sanguinalis), crabgrass, Brazil (Brazilian crabgrass, Digitaria horizontalis), panicum, fall (fall panicum, Panicum dichotomiflorum), foxtail, giant (giant foxtail, Setaria faberii), foxtail, green (green foxtail, Setaria viridis), goosegrass (Eleusine indica), johnsongrass (Sorghum halepense), ragweed (common ragweed, Ambrosia elation), barnyardgrass (Echinochloa crus-galli), sandbur (southern sandbur, Cenchrus echinatus), arrowleaf sida (Sida rhombifolia), ryegrass, Italian (Italian ryegrass, Lolium multiflorum), dayflower, (VA) (Virginia dayflower, Commelina virginica), field bindweed (Convolvulus arvensis), cocklebur (common cocklebur, Xanthium strumarium), morningglory (Ipomoea coccinea), nightshade (eastern black nightshade, Solanum ptycanthum), kochia (Kochia scoparia), nutsedge, yellow (yellow nutsedge, Cyperus esculentus) and beggarticks (hairy beggarticks, Bidens pilosa) were planted into a silt loam soil and treated preemergence with test chemicals formulated in a non-phytotoxic solvent mixture which included a surfactant. At the same time, plants selected from these crop and weed species were planted in pots containing a growing medium comprising spaghnum peat moss, vermiculite, wetting agent and starter nutrients and treated with postemergence applications of some of the test chemicals formulated in the same manner. Plants ranged in height from 2 to 18 cm for postemergence treatments (1- to 4-leaf stage).
(§2) Treated plants and controls were maintained in a greenhouse for 14 to 21 days, after which time all species were compared to controls and visually evaluated. Plant response ratings, summarized in Table E, are based on a scale of 0 to 100 where 0 is no effect and 100 is complete control. A dash (-) response means no test result.

[2] = system: pigweed, palmer (palmer pigweed, Amaranthus palmeri); experiment: Test E pre-/postemergence: pigweed, palmer; settings: scale 0 to 100
From the text: as §1, §2

[3] = system: sandbur (southern sandbur, Cenchrus echinatus); experiment: Test E pre-/postemergence: sandbur; settings: scale 0 to 100
From the text: as §1, §2

[4] = system: ragweed (common ragweed, Ambrosia elation); experiment: Test E pre-/postemergence: ragweed; settings: Preemergence, scale 0 to 100
From the text: as §1, §2

[5] = system: waterhemp (common waterhemp, Amaranthus rudis); experiment: Test E pre-/postemergence: waterhemp; settings: scale 0 to 100
From the text: as §1, §2

[6] = system: arrowleaf sida (Sida rhombifolia); experiment: Test F pre-/postemergence: arrowleaf sida
From the text: (§3) Seeds of plant species selected from corn (Zea mays), soybean (Glycine max), velvetleaf (Abutilon theophrasti), lambsquarters (Chenopodium album), poinsettia, wild (wild poinsettia, Euphorbia heterophylla), pigweed, palmer (palmer pigweed, Amaranthus palmeri), waterhemp (common waterhemp, Amaranthus rudis), surinam grass (Brachiaria decumbens), crabgrass, Brazil (Brazilian crabgrass, Digitaria horizontalis), panicum, fall (fall panicum Panicum dichotomiflorum), crabgrass, large (large crabgrass, Digitaria sanguinalis), foxtail, giant (giant foxtail, Setaria faberii), foxtail, green (green foxtail Setaria viridis), goosegrass (Eleusine indica), ragweed (common ragweed, Ambrosia elatior), barnyardgrass (Echinochloa crus-galli), sandbur (southern sandbur, Cenchrus echinatus), arrowleaf sida (Sida rhombifolia), ryegrass, Italian (Italian ryegrass, Lolium multiflorum), dayflower, VA (Virginia (VA) dayflower, Commelina virginica), field bindweed (Convolvulus arvensis), cocklebur (common cocklebur, Xanthium strumarium), morningglory (Ipomoea coccinea), nightshade (eastern black nightshade, Solanum ptycanthum), kochia (Kochia scoparia), nutsedge, yellow (yellow nutsedge, Cyperus esculentus), johnsongrass (Sorghum halepense), smartweed (ladysthumb smartweed, Polygonum persicaria), and beggarticks (hairy beggarticks, Bidens pilosa), were planted into a silt loam soil and treated preemergence with test chemicals formulated in a non-phytotoxic solvent mixture which included a surfactant. At the same time, plants selected from these crop and weed species and also pigweed (Amaranthus retroflexus), waterhemp_RES1 (ALS/Triazine resistant common waterhemp, Amaranthus rudis) and waterhemp_RES2 (ALS/HPPD resistant common waterhemp, Amaranthus rudis) were planted in pots containing a planting medium comprising spaghnum peat moss, vermiculite, wetting agent and starter nutrients treated with postemergence applications of some of the test chemicals formulated in the same manner. Plants ranged in height from 2 to 18 cm for postemergence treatments (1- to 4-leaf stage).
as §2

[7] = system: waterhemp (common waterhemp, Amaranthus rudis); experiment: Test F pre-/postemergence: waterhemp
From the text: as §3, §2

[8] = system: pigweed, palmer (palmer pigweed, Amaranthus palmeri); experiment: Test F pre-/postemergence: pigweed, palmer; settings: Postemergence, scale 0 to 100
From the text: as §3, §2

[9] = system: surinam grass (Brachiaria decumbens); experiment: Test F pre-/postemergence: surinam grass; settings: Preemergence
From the text: as §3, §2

kochia (Kochia scoparia) = experiment: Test F pre-/postemergence: kochia; settings: Preemergence
From the text: as §3, §2

[10] = Postemergence, 8 g ai/ha, scale 0 to 100
[11] = Postemergence, 16 g ai/ha, scale 0 to 100
[12] = Postemergence, 31 g ai/ha, scale 0 to 100
[13] = Postemergence, 62 g ai/ha, scale 0 to 100
[14] = Postemergence, 125 g ai/ha, scale 0 to 100
[15] = Preemergence, 16 g ai/ha, scale 0 to 100 (0 no effect, 100 complete control)
[16] = Preemergence, 31 g ai/ha, scale 0 to 100 (0 no effect, 100 complete control)
[17] = Preemergence, 125 g ai/ha, scale 0 to 100
[18] = 16 g ai/ha, scale 0 to 100 (0 no effect, 100 complete control)
[19] = 31 g ai/ha, scale 0 to 100 (0 no effect, 100 complete control)

| SMILES | Plant response rating: Nightshade ([1]; 31 g ai/ha) | Plant response rating: Nightshade ([1]; 62 g ai/ha) | Plant response rating: Nightshade ([1]; 125 g ai/ha) | Plant response rating: Pigweed, Palmer ([2]; Preemergence, 16 g ai/ha) | Plant response rating: Pigweed, Palmer ([2]; Preemergence, 31 g ai/ha) | Plant response rating: Pigweed, Palmer ([2]; Preemergence, 62 g ai/ha) | Plant response rating: Pigweed, Palmer ([2]; Preemergence, 125 g ai/ha) | Plant response rating: Sandbur ([3]; Preemergence, 16 g ai/ha) | Plant response rating: Sandbur ([3]; Preemergence, 31 g ai/ha) | Plant response rating: Sandbur ([3]; Preemergence, 62 g ai/ha) | Plant response rating: Ragweed ([4]; 16 g ai/ha) | Plant response rating: Ragweed ([4]; 31 g ai/ha) | Plant response rating: Ragweed ([4]; 62 g ai/ha) | Plant response rating: Ragweed ([4]; 125 g ai/ha) | Plant response rating: Waterhemp ([5]; Preemergence, 16 g ai/ha) | Plant response rating: Waterhemp ([5]; Preemergence, 31 g ai/ha) | Plant response rating: Waterhemp ([5]; Preemergence, 62 g ai/ha) | Plant response rating: Waterhemp ([5]; Preemergence, 125 g ai/ha) | Plant response rating: Nightshade ([1]; 8 g ai/ha) | Plant response rating: Nightshade ([1]; 16 g ai/ha) | other results |
| --- | --- | --- | --- | --- | --- | --- | --- | --- | --- | --- | --- | --- | --- | --- | --- | --- | --- | --- | --- | --- | --- |
| Cc1nn(-c2ccc(C(F)(F)F)cc2)nc1Cc1ccnc(C(F)(F)F)c1 [Compound 47, 4-[[5-methyl-2-[4-(trifluoromethyl)phenyl]-2H-1,2,3-triazol-4-yl]methyl]-2-(trifluoromethyl)pyridine] | 75 | 98 | 98 | 100 | 100 | 100 | 100 | 0 | 20 | 90 | 0 | 0 | 10 | 50 | 100 | 100 | 100 | 100 | – | – | Plant response rating: Nightshade ([1]; 250 g ai/ha): 98; Plant response rating: Pigweed, Palmer ([2]; Postemergence, 250 g ai/ha): 100; Plant response rating: Pigweed, Palmer ([2]; Postemergence, 16 g ai/ha): 70; Plant response rating: Pigweed, Palmer ([2]; Postemergence, 31 g ai/ha): 90; Plant response rating: Pigweed, Palmer ([2]; Postemergence, 62 g ai/ha): 95; Plant response rating: Pigweed, Palmer ([2]; Postemergence, 125 g ai/ha): 100; Plant response rating: Pigweed, Palmer ([2]; Preemergence, 250 g ai/ha): 100; Plant response rating: Sandbur ([3]; Postemergence, 250 g ai/ha): 50; Plant response rating: Sandbur ([3]; Postemergence, 16 g ai/ha): 20; Plant response rating: Sandbur ([3]; Postemergence, 31 g ai/ha): 25; Plant response rating: Sandbur ([3]; Postemergence, 62 g ai/ha): 25; Plant response rating: Sandbur ([3]; Postemergence, 125 g ai/ha): 30; Plant response rating: Sandbur ([3]; Preemergence, 250 g ai/ha): 100; Plant response rating: Ragweed ([4]; 250 g ai/ha): 90; Plant response rating: Waterhemp ([5]; Postemergence, 250 g ai/ha): 95; Plant response rating: Waterhemp ([5]; Postemergence, 16 g ai/ha): 60; Plant response rating: Waterhemp ([5]; Postemergence, 31 g ai/ha): 70; Plant response rating: Waterhemp ([5]; Postemergence, 62 g ai/ha): 80; Plant response rating: Waterhemp ([5]; Postemergence, 125 g ai/ha): 85; Plant response rating: Waterhemp ([5]; Preemergence, 250 g ai/ha): 100 |
| Cc1nn(-c2ccc(F)c(F)c2)nc1Oc1ccnc(C(F)(F)F)c1 [Compound 145] | – | – | – | – | – | – | – | – | – | – | – | – | – | – | – | – | – | – | – | – | Plant response rating, Arrowleaf Sida [6, 10]: 30; Plant response rating, Arrowleaf Sida [6, 11]: 40; Plant response rating, Arrowleaf Sida [6, 12]: 50; Plant response rating, Arrowleaf Sida [6, 13]: 60; Plant response rating, Arrowleaf Sida [6, 14]: 70; Plant response rating, Waterhemp [7, 10]: 90; Plant response rating, Waterhemp [7, 11]: 90; Plant response rating, Waterhemp [7, 12]: 95; Plant response rating, Waterhemp [7, 13]: 95; Plant response rating, Waterhemp [7, 14]: 95; Plant response rating, Pigweed, Palmer ([8]; 8 g ai/ha): 40; Plant response rating, Pigweed, Palmer ([8]; 16 g ai/ha): 70; Plant response rating, Pigweed, Palmer ([8]; 62 g ai/ha): 85; Plant response rating, Pigweed, Palmer ([8]; 125 g ai/ha): 90 |
| Cc1nn(-c2ccc(F)cc2)nc1Oc1ccnc(C(F)(F)F)c1 [Compound 129, 4-[[2-(4-fluorophenyl)-5-methyl-2H-1,2,3-triazol-4-yl]oxy]-2-(trifluoromethyl)pyridine] | 0 | 50 | 60 | 80 | 100 | 100 | 100 | 0 | 20 | 20 | 0 | 5 | 20 | 20 | 35 | 80 | 100 | 100 | 0 | 0 | Plant response rating: Pigweed, Palmer ([2]; Preemergence, 8 g ai/ha): 30; Plant response rating: Sandbur ([3]; Preemergence, 8 g ai/ha): 0; Plant response rating: Sandbur ([3]; Preemergence, 125 g ai/ha): 50; Plant response rating: Ragweed ([4]; 8 g ai/ha): 0; Plant response rating: Waterhemp ([5]; Preemergence, 8 g ai/ha): 20 |
| Cc1nn(-c2ccc(F)cc2)nc1Cc1ccnc(C(F)(F)F)c1 [Compound 16, 4-[[2-(4-fluorophenyl)-5-methyl-2H-1,2,3-triazol-4-yl]methyl]-2-(trifluoromethyl)pyridine] | 50 | 100 | 100 | 98 | 98 | 98 | 100 | 0 | 10 | 50 | 0 | 0 | 30 | 30 | 70 | 100 | 100 | 100 | 0 | 0 | Plant response rating: Pigweed, Palmer ([2]; Preemergence, 8 g ai/ha): 95; Plant response rating: Sandbur ([3]; Preemergence, 8 g ai/ha): 0; Plant response rating: Sandbur ([3]; Preemergence, 125 g ai/ha): 60; Plant response rating: Ragweed ([4]; 8 g ai/ha): 0; Plant response rating: Waterhemp ([5]; Preemergence, 8 g ai/ha): 60 |
| Fc1ccc(-n2nc(Cc3ccnc(C(F)(F)F)c3)c(OCC(F)(F)F)n2)cc1 [Compound 142] | – | – | – | – | – | – | – | – | – | – | – | – | – | – | – | – | – | – | – | – | Plant response rating, Arrowleaf Sida [6, 15]: 0; Plant response rating, Arrowleaf Sida [6, 16]: 30; Plant response rating, Arrowleaf Sida ([6]; Preemergence, 62 g ai/ha, scale 0 to 100): 30; Plant response rating, Arrowleaf Sida [6, 17]: 35; Plant response rating, Waterhemp [7, 15]: 98; Plant response rating, Waterhemp [7, 16]: 98; Plant response rating, Waterhemp [7, 17]: 100; Plant response rating, Surinam Grass [9, 18]: 5; Plant response rating, Surinam Grass [9, 19]: 5; Plant response rating, Surinam Grass ([9]; 125 g ai/ha, scale 0 to 100): 60; Plant response rating, Kochia (kochia (Kochia scoparia); [18]): 20; Plant response rating, Kochia (kochia (Kochia scoparia); [19]): 80; Plant response rating, Kochia (kochia (Kochia scoparia); 62 g ai/ha, scale 0 to 100): 85; Plant response rating, Kochia (kochia (Kochia scoparia); 125 g ai/ha, scale 0 to 100): 95 |
